Reference: patent publication US20250127772A1, “SPECIFIC TETRADENTATE COPPER CHELATORS FOR THE TREATMENT OF WILSON'S DISEASE” (GUANGDONG UNIVERSITY OF TECHNOLOGY, priority 2023, published 2025)
“And” between values parts separate entries of the source, which are not always exact repeats. Identical values can stand only once. Like-named read-outs stand apart in the source and are kept apart here.

Tested on: homozygous toxic-milk mouse model (TX model)
Type: in vivo
Conditions: for Cu content Brain / Cu content Feces / Cu content Kidney / Cu content Liver / Cu content Serum / Cu content Urine: mean of 6 mice ± SEM
From the text: The selected drug-candidate TDMQ20 has been evaluated on the homozygous toxic-milk mouse model (TX model), a regular murine model of Wilson disease, suitable for evaluation of drug-candidates (for a review, see E. Reed et al., J. Neurochem., 146, 356-373, 2018). TX mice are bearing a naturally occurring point mutation on ATP7B resulting in a methionine changed for a valine, that causes the loss of copper transportation by this protein. C57BL/6 mice have no mutation on ATP7B and were used as control mice in the evaluation of TDMQ20. TX mice were provided by Sun Yat-Sen University (Guangzhou) and C57BL/6 mice by the Guangdong experimental animal center (Guangzhou) and all experiments were performed according to protocols approved by the Welfare Laboratory Animals Committee of the Guangdong University of Technology (approval n° GDUTXS2022083 dated on 3 Aug. 2022), in the framework of the 3 Rs principle.
[…] TX mice (WD) and 8-week-old C57BL/6 mice (Control) were used. TX mice (as WD, TDMQ-L, TDMQ-M, TDMQ-H groups, respectively) received the drug TDMQ20 by intragastric gavage twice a day for 14 consecutive days (at 0, 12.5, 25.0, 50.0 mg/kg in NaCl 0.9%). On the same schedule, C57BL/6 mice (as control group) received NaCl 0.9%. Treatment of WD mice with DPA (200 mg/kg) was used as comparison (DPA group). Six groups of 6 mice were used.
At the end of the treatment period, mice (10-week old) were placed in metabolic cages for 12 h in order to collect urine and feces. At the end of this 12 h-period, mice were anesthetized using 2.5% Avertin diluted in 0.9% NaCl at a dose of […] body weight and sacrificed. Cardiac blood was collected and left at room temperature for 30 minutes before centrifugation at 4° C. at 3000 r/min for 10 minutes to obtain serum samples. During this 30-min period, liver, kidney, brain and serum were also collected. Copper concentrations in urine and feces, serum, liver, kidney and brain were determined by inductively coupled plasma mass spectrometry (ICP-MS). Data analysis was carried out using SPSS Statistics software (version 26). Data are provided as mean values±standard error of the mean (SEM). Statistical analyses were performed using one-way ANOVA for liver, feces and urine, and by non-parametric test for serum, kidney, and brain. Differences with p>0.05 were considered as no significance (ns), * p<0.05, ** p<0.01, and *** p<0.001, n=6. Graph presentations were drawn with Prism GraphPad 8.0.2.

[1] = TX mice, TDMQ20-H 50 mg/kg/day gavage 14 days
[2] = TX mice, TDMQ20-L 12.5 mg/kg/day gavage 14 days
[3] = TX mice, TDMQ20-M 25 mg/kg/day gavage 14 days

## CN(C)CCNCCc1ccc2c(Cl)cc(Cl)c(N)c2n1 [TDMQ20]
TX mice, TDMQ20 25 or 50 mg/kg/day
  copper content in feces versus untreated WD mice or DPA 200 mg/kg/day: significantly higher
[1]
  Cu content Brain: 3.5 ± 0.1 mg/kg
  Cu content Feces: 142 ± 10 mg/kg
  Cu content Kidney: 11.0 ± 1.7 mg/kg
  Cu content Liver: 200 ± 14 mg/kg
  Cu content Serum: 3.5 ± 0.6 mg/L
  Cu content Urine: 0.98 ± 0.05 mg/L
[2]
  Cu content Brain: 3.2 ± 0.2 mg/kg
  Cu content Feces: 88 ± 3 mg/kg
  Cu content Kidney: 5.5 ± 0.3 mg/kg
  Cu content Liver: 290 ± 4 mg/kg
  Cu content Serum: 0.63 ± 0.04 mg/L
  Cu content Urine: 0.76 ± 0.13 mg/L
[3]
  Cu content Brain: 3.3 ± 0.2 mg/kg
  Cu content Feces: 129 ± 4 mg/kg
  Cu content Kidney: 5.0 ± 0.4 mg/kg
  Cu content Liver: 256 mg/kg and 256 ± 8 mg/kg
  Cu content Serum: 0.83 ± 0.12 mg/L
  Cu content Urine: 0.67 ± 0.10 mg/L
TX mice, TDMQ20 at 50 mg/kg, factor versus WD mice, 50 mg/kg
  copper concentration in urine, concentration ratio TDMQ20-H/WD: 1.8 and 1.75
TX mice, TDMQ20 at 50 mg/kg, ratio TDMQ20-H/WD
  concentration of copper in kidney, factor versus WD mice: 1.64
mouse, in vivo
  copper concentration in the brain versus WD mice: no increase of copper concentration
